According to patent US20120029187A1, “HALOALKYLSULFONANILIDE DERIVATIVE” (Nissan Chemical Industries, Ltd., priority 2009, published 2012):

What was measured:
Assay type in all cases: in vivo
direct-seeded rice [1] = test: Test Example 3: soil treatment, effect on crop; details: dose 6.3 g/a
Source text: (§1) Test on the Herbicidal Effects in Soil Treatment
(§2) Sterilized diluvial soil was put in plastic boxes with a length of 21 cm, a width of 13 cm and a depth of 7 cm, and seeds of barnyardgrass, large crabgrass, giant foxtail, wild oat, blackgrass, velvetleaf, common ragweed, redroot pigweed, common lambsquater, posumbu knotweed, common chickweed corn, soybean, rice, wheat and sugar beet were sown in spots and covered with an about 1.5 cm-thick soil layer. Emulsifiable concentrates containing compounds of the present invention formulated in accordance with Formulation Example 2 were uniformly applied to the soil surfaces at predetermined doses through a small sprayer after dilute with water. Three weeks after the application, the herbicidal effects against various plants were determined on the same evaluation scale as in Test Example 1.
(§3) A: barnyardgrass, B: bulrush, C: ducksalad, D: large crabgrass, E: giant foxtail, F: wild oat, G: water foxtail, H: Italian ryegrass, I: velvetleaf, J: common ragweed, K: redroot pigweed, L: common lambsquater, M: posumbu knotweed, N: common chickweed, O: beadstraw, a: transplanted rice, b: corn, c: soybean, d: direct-seeded rice, e: wheat, f: sugar beet.
(§4) The doses (g/a) represents the amounts in g per 1 are (a) applied after adjustment of concentration adjustment.

corn [2] = test: Test Example 3: soil treatment, effect on crop; details: dose 6.3 g/a
Source text: as §1, §2, §3, §4

soybean [3] = test: Test Example 3: soil treatment, effect on crop; details: dose 6.3 g/a
Source text: as §1, §2, §3, §4

wheat [4] = test: Test Example 3: soil treatment, effect on crop; details: dose 6.3 g/a
Source text: as §1, §2, §3, §4

sugar beet [5] = test: Test Example 3: soil treatment, effect on crop; details: dose 6.3 g/a
Source text: as §1, §2, §3, §4

direct-seeded rice [6] = test: Test Example 4: foliage treatment, effect on crop; details: dose 6.3 g/a, three weeks after the application
Source text: (§5) Test on the Herbicidal Effect in Foliage Treatment
as §2, with “chickweed,” for “chickweed”, “The boxes were placed in a greenhouse at 25 to 30° C. to grow the plants. After 14 days, emulsifiable” for “Emulsifiable”, “foliage” for “soil surfaces”, “diluted” for “dilute”
as §3, §4

corn [7] = test: Test Example 4: foliage treatment, effect on crop; details: dose 6.3 g/a, three weeks after the application
Source text: as §5
as §2, with “chickweed,” for “chickweed”, “The boxes were placed in a greenhouse at 25 to 30° C. to grow the plants. After 14 days, emulsifiable” for “Emulsifiable”, “foliage” for “soil surfaces”, “diluted” for “dilute”
as §3, §4

soybean [8] = test: Test Example 4: foliage treatment, effect on crop; details: dose 6.3 g/a, three weeks after the application
Source text: as §5
as §2, with “chickweed,” for “chickweed”, “The boxes were placed in a greenhouse at 25 to 30° C. to grow the plants. After 14 days, emulsifiable” for “Emulsifiable”, “foliage” for “soil surfaces”, “diluted” for “dilute”
as §3, §4

wheat [9] = test: Test Example 4: foliage treatment, effect on crop; details: dose 6.3 g/a, three weeks after the application
Source text: as §5
as §2, with “chickweed,” for “chickweed”, “The boxes were placed in a greenhouse at 25 to 30° C. to grow the plants. After 14 days, emulsifiable” for “Emulsifiable”, “foliage” for “soil surfaces”, “diluted” for “dilute”
as §3, §4

sugar beet [10] = test: Test Example 4: foliage treatment, effect on crop; details: dose 6.3 g/a, three weeks after the application
Source text: as §5
as §2, with “chickweed,” for “chickweed”, “The boxes were placed in a greenhouse at 25 to 30° C. to grow the plants. After 14 days, emulsifiable” for “Emulsifiable”, “foliage” for “soil surfaces”, “diluted” for “dilute”
as §3, §4

bulrush [11] = test: Test Example 2: herbicidal effects during the vegetation period under submerged conditions; details: treatment during the vegetation period under submerged conditions; dose 2.52 g/a
Summary of the method: (§6)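 Barnyardgrass, bulrush and ducksalad were co-sown in alluvial soil flooded to 4 cm and grown in a greenhouse at 25 to 30° C. At the 1- or 2-leaf stage, water-diluted emulsifiable concentrates went onto the water surface at set doses (g/a). Herbicidal effect was scored three weeks later on a graded scale.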

ducksalad [12] = test: as above; details: treatment during the vegetation period under submerged conditions; dose 2.52 g/a
Summary of the method: as §6

barnyardgrass [13] = test: as above; details: treatment during the vegetation period under submerged conditions; dose 2.52 g/a
Summary of the method: as §6

common ragweed [14] = test: Test Example 4: herbicidal effect in foliage treatment; details: dose 6.3 g/a, three weeks after the application
Summary of the method: (§7)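 A uniform foliar spray of emulsifiable concentrate, diluted with water to give the stated g/a dose, was applied to plants raised for 14 days from seed in sterilized diluvial soil at 25 to 30° C. Herbicidal effects were scored three weeks later.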

giant foxtail [15] = test: as above; details: dose 6.3 g/a, three weeks after the application
Summary of the method: as §7

beadstraw = test: as above; details: dose 6.3 g/a, three weeks after the application
Summary of the method: as §7

common chickweed [16] = test: as above; details: dose 6.3 g/a, three weeks after the application
Summary of the method: as §7

large crabgrass [17] = test: as above; details: dose 6.3 g/a, three weeks after the application
Summary of the method: as §7

common lambsquater [18] = test: as above; details: dose 6.3 g/a, three weeks after the application
Summary of the method: as §7

wild oat [19] = test: as above; details: dose 6.3 g/a, three weeks after the application
Summary of the method: as §7

water foxtail [20] = test: as above; details: dose 6.3 g/a, three weeks after the application
Summary of the method: as §7

Italian ryegrass [21] = test: as above; details: dose 6.3 g/a, three weeks after the application
Summary of the method: as §7

barnyardgrass [22] = test: as above; details: dose 6.3 g/a, three weeks after the application
Summary of the method: as §7

bulrush [23] = test: Test Example 1: herbicidal effects in preemergence treatment under submerged conditions; details: dose 2.52 g/a
Summary of the method: (§8)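 Alluvial soil was flooded to 4 cm, sown with barnyardgrass, bulrush and ducksalad, and planted with 2.5-leaf rice seedlings. On the seeding day, water-diluted emulsifiable concentrates were applied to the water surface at set doses (g/a). After three weeks in a 25 to 30° C. greenhouse, mortality was scored 0–5.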

ducksalad [24] = test: as above; details: dose 2.52 g/a
Summary of the method: as §8

barnyardgrass [25] = test: as above; details: dose 2.52 g/a
Summary of the method: as §8

transplanted rice = test: Test Example 1: preemergence treatment under submerged conditions, effect on crop; details: dose 2.52 g/a
Summary of the method: as §8

common ragweed [26] = test: Test Example 3: herbicidal effects in soil treatment; details: dose 6.3 g/a
Summary of the method: (§9)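 Seeds were sown in sterilized diluvial soil and covered with about 1.5 cm of soil. Compounds, formulated as emulsifiable concentrates and diluted with water, were sprayed evenly over the soil surface at set doses in g/a. Herbicidal effect was scored on a rating scale three weeks later.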

giant foxtail [27] = test: as above; details: dose 6.3 g/a
Summary of the method: as §9

common chickweed [28] = test: as above; details: dose 6.3 g/a
Summary of the method: as §9

large crabgrass [29] = test: as above; details: dose 6.3 g/a
Summary of the method: as §9

common lambsquater [30] = test: as above; details: dose 6.3 g/a
Summary of the method: as §9

wild oat [31] = test: as above; details: dose 6.3 g/a
Summary of the method: as §9

water foxtail [32] = test: as above; details: dose 6.3 g/a
Summary of the method: as §9

Italian ryegrass [33] = test: as above; details: dose 6.3 g/a
Summary of the method: as §9

barnyardgrass [34] = test: as above; details: dose 6.3 g/a
Summary of the method: as §9

Structure (SMILES): CCOC(=O)N(c1ccccc1CN1CCOCCC1=O)S(=O)(=O)C(F)(F)F [Compound V-2]
- effect on crop, d: direct-seeded rice (direct-seeded rice [1]): 0 (mortality of less than 5% (almost ineffective))
- effect on crop, b: corn (corn [2]): 0 (mortality of less than 5% (almost ineffective))
- effect on crop, c: soybean (soybean [3]): 0 (mortality of less than 5% (almost ineffective))
- effect on crop, e: wheat (wheat [4]): 0 (mortality of less than 5% (almost ineffective))
- effect on crop, f: sugar beet (sugar beet [5]): 4 (mortality of at least 70% and less than 90%)
- d: direct-seeded rice, effect on crop (direct-seeded rice [6]): 3 (mortality of at least 40% and less than 70%)
- b: corn, effect on crop (corn [7]): 1 (mortality of at least 5% and less than 20%)
- c: soybean, effect on crop (soybean [8]): 3 (mortality of at least 40% and less than 70%)
- e: wheat, effect on crop (wheat [9]): 0 (mortality of less than 5% (almost ineffective))
- f: sugar beet, effect on crop (sugar beet [10]): 3 (mortality of at least 40% and less than 70%)
- B: bulrush, herbicidal effect (evaluation scale 0-5) (bulrush [11]): 5 (mortality of 90% or above (nearly complete death))
- C: ducksalad, herbicidal effect (evaluation scale 0-5) (ducksalad [12]): 5 (mortality of 90% or above (nearly complete death))
- A: barnyardgrass, herbicidal effect (evaluation scale 0-5) (barnyardgrass [13]): 4 (mortality of at least 70% and less than 90%)
- J: common ragweed, herbicidal effect (common ragweed [14]): 5 (mortality of 90% or above (nearly complete death))
- E: giant foxtail, herbicidal effect (giant foxtail [15]): 4 (mortality of at least 70% and less than 90%)
- O: beadstraw, herbicidal effect (beadstraw): 3 (mortality of at least 40% and less than 70%)
- N: common chickweed, herbicidal effect (common chickweed [16]): 4 (mortality of at least 70% and less than 90%)
- D: large crabgrass, herbicidal effect (large crabgrass [17]): 2 (mortality of at least 20% and less than 40%)
- L: common lambsquater, herbicidal effect (common lambsquater [18]): 5 (mortality of 90% or above (nearly complete death))
- F: wild oat, herbicidal effect (wild oat [19]): 0 (mortality of less than 5% (almost ineffective))
- G: water foxtail, herbicidal effect (water foxtail [20]): 5 (mortality of 90% or above (nearly complete death))
- H: Italian ryegrass, herbicidal effect (Italian ryegrass [21]): 0 (mortality of less than 5% (almost ineffective))
- A: barnyardgrass, herbicidal effect (barnyardgrass [22]): 5 (mortality of 90% or above (nearly complete death))
- B: bulrush, herbicidal effect (evaluation scale 0-5) (bulrush [23]): 5 (mortality of 90% or above (nearly complete death))
- C: ducksalad, herbicidal effect (evaluation scale 0-5) (ducksalad [24]): 5 (mortality of 90% or above (nearly complete death))
- A: barnyardgrass, herbicidal effect (evaluation scale 0-5) (barnyardgrass [25]): 5 (mortality of 90% or above (nearly complete death))
- a: transplanted rice, effect on crop (evaluation scale 0-5) (transplanted rice): 0 (mortality of less than 5% (almost ineffective))
- herbicidal effect, J: common ragweed (common ragweed [26]): 5 (mortality of 90% or above (nearly complete death))
- herbicidal effect, E: giant foxtail (giant foxtail [27]): 3 (mortality of at least 40% and less than 70%)
- herbicidal effect, N: common chickweed (common chickweed [28]): 5 (mortality of 90% or above (nearly complete death))
- herbicidal effect, D: large crabgrass (large crabgrass [29]): 1 (mortality of at least 5% and less than 20%)
- herbicidal effect, L: common lambsquater (common lambsquater [30]): 5 (mortality of 90% or above (nearly complete death))
- herbicidal effect, F: wild oat (wild oat [31]): 0 (mortality of less than 5% (almost ineffective))
- herbicidal effect, G: water foxtail (water foxtail [32]): 5 (mortality of 90% or above (nearly complete death))
- herbicidal effect, H: Italian ryegrass (Italian ryegrass [33]): 0 (mortality of less than 5% (almost ineffective))
- herbicidal effect, A: barnyardgrass (barnyardgrass [34]): 4 (mortality of at least 70% and less than 90%)
